Paper PMC6766655, “AhR–ROR-γt complex is a therapeutic target for MAP4K3/GLK^highIL-17A^high subpopulation of systemic lupus erythematosus” (The FASEB Journal, 2019)

Tests used:
[1] = test system: AhR–ROR-γt complex; assay: In situ proximity ligation assay in peripheral blood T cells from patients with SLE or RA; type: cell-based, human; settings: 5 μM for 30 min; T cells from patients with SLE and RA
Method: (§1) Proximity ligation assays (PLAs) were performed using the Duolink In Situ Red Starter Kit (MilliporeSigma) according to the manufacturer’s instructions ([24]). Briefly, cells were incubated with rabbit or mouse primary antibodies for the AhR–plus–ROR-γt pair, followed by species-specific secondary antibodies that are conjugated with oligonucleotides (PLA probes). After ligation and amplification reactions for 100 min, the PLA signals from each pair of PLA probes in close proximity (<40 nm) were visualized as individual red dots by a confocal microscope (TCS SP5II; Leica Microsystems, Buffalo Grove, IL, USA). Red dots represent direct interaction signals.
(§2) After verification of the induction of GLK–AhR–ROR-γt–IL-17A signaling in human SLE T cells, we next studied whether the GLK–AhR–ROR-γt signaling is a therapeutic target for autoimmune diseases. Because there are no known commercial GLK inhibitors, we performed high-throughput screening of 101,200 compounds to identify GLK inhibitors using both cell-based luciferase reporter assays and in vitro kinase assays. […] Nevertheless, the IC50 of verteporfin for MAP4K3-GLK was the lowest one. […]
(§3) Figure 3 Verteporfin (C1) blocks the AhR–ROR-γt complex in human autoimmune T cells. […] D) Quantification of the PLA signals shown in panel C. *P < 0.05, ***P < 0.001 (2-tailed Student’s t test).

[2] = test system: AhR–phosphorylated ROR-γt (Ser-489) complex; assay: as above; type: cell-based, human; settings: 5 μM for 30 min; T cells from patients with SLE and RA
Method: as §1, §2, §3

[3] = test system: human peripheral blood T cells; assay: ELISA of cytokines in supernatants of anti-CD3/CD28-stimulated human peripheral blood T cells; type: cell-based; settings: for inhibition of IL-17A: 1 μM
Text: Primary human T cells were freshly isolated and negatively selected from the PBLs of clinical samples using a cocktail of biotin-conjugated anti-CD19, anti-CD14, and anti-CD11b antibodies (BioLegend) on a magnetic cell separation column (Miltenyi Biotec, Bergisch Gladbach, Germany) ([26]). In addition, primary murine T cells were negatively selected from the spleens of mice using magnetically coupled antibodies against CD11b, B220, CD49b, CD235, and TER-119 (Miltenyi Biotec) ([18]).
We further studied whether IL-17A production is abolished by verteporfin in human and murine T cells. We first tested the inhibitory effect of verteporfin in murine T cells stimulated with T-cell receptor (TCR) signaling (anti-CD3 plus anti-CD28 antibodies). […] This reduction is likely due to the inhibition of NF-κB activation ([18]) by the verteporfin treatment. This notion is supported by our published results that TCR-induced TNF-α and IFN-γ levels in T cells are inhibited by IKK-β conditional knockout ([18]). Next, we studied whether verteporfin attenuates IL-17A production using human peripheral blood T cells with stimulation. The levels of T-cell–secreted IL-17A in unstimulated T cells from patients with SLE and RA were enhanced compared with those from healthy controls (Fig. 5B). […] GLK overexpression in T cells selectively induces IL-17A production in Lck-GLK Tg mice ([18]). […] The inhibition of the production of other cytokines by the high-dose but not low-dose verteporfin treatment may be due to a requirement of higher concentration of verteporfin for an efficient inhibition of NF-κB activation.
Figure 5 Verteporfin (C1) blocks IL-17 production of human T cells. A) ELISA of various cytokines in supernatants of murine primary T cells stimulated with anti-CD3 or CD28 and cotreated with C1 (5 or 10 μM) for 3 d. Means ± SD are shown; n = 3/group. B) ELISA of various cytokines in supernatants of human T cells. T cells were stimulated with anti-CD3 or CD28 and cotreated with C1 (1 or 5 μM) for 3 d. HC, healthy control; N.S., not significant. Means ± SD are shown. *P < 0.05, **P < 0.01, ***P < 0.001 (2-tailed Student’s t test).
Supplementary Figure 6. Inhibition of IL-17A overproduction by verteporfin in inflammatory T cells from SLE or RA patients. (A) ELISA of various cytokines in supernatants of T cells from RA patients. T cells were stimulated with anti-CD3/CD28 and co-treated with verteporfin (C1) (1 or 5 μM) for 3 days. Means ± SD are shown. (B) The inhibition (%) of IL-17A by the 1 μM verteporfin (C1) treatment in SLE or RA patients was compared to that of healthy controls (HC). Means ± SEM of are shown. HC, healthy controls; SLE, systemic lupus erythematosus; RA, rheumatoid arthritis.

## verteporfin
[1]
  AhR–ROR-γt complex (PLA signals): significantly inhibited
[2]
  AhR–phosphorylated ROR-γt complex (PLA signals): significantly inhibited
[3]; T cells of healthy controls
  inhibition of IL-17A: ~48%
[3]; T cells of patients with SLE or RA
  inhibition of IL-17A: ~75%
[3]; T cells from patients with SLE and RA and healthy controls, 1 or 5 μM for 3 d
  IL-17A production: significantly reduced
[3]; high-dose 5 μM, T cells of healthy controls and patients with SLE
  production of IL-17A, IL-6, IL-10, TNF-α, and IFN-γ: significantly inhibited
[3]; low-dose 1 μM, T cells from patients with SLE or RA
  production of IL-6, IL-10, TNF-α, and IFN-γ: modestly inhibited
